According to ChEMBL document CHEMBL1201862, “PubChem BioAssay data set” (2004):
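96-well plates; 48 h exposure; 5 concentrations. Endpoints by linear interpolation between flanking doses. Not reached: highest tested concentration assigned. GI50 = concentration required for 50% inhibition of growth.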 The source made the active and inactive calls. Cut-off read from the data, not from the text of the source: active = GI50 up to about 1.1 µM and inactive = higher.

Legend:
Assay in all cases: growth of human tumour cells (NCI), 48 h
COLO 205 = system: COLO 205
DU-145 = system: DU-145
HCC 2998 = system: HCC 2998
HCT-116 = system: HCT-116
HL-60 = system: HL-60
HOP-92 = system: HOP-92
Hs-578T = system: Hs-578T
IGROV-1 = system: IGROV-1
LOX IMVI = system: LOX IMVI
NCI-H522 = system: NCI-H522
OVCAR-8 = system: OVCAR-8
PC-3 = system: PC-3
RPMI-8226 = system: RPMI-8226
SK-MEL-28 = system: SK-MEL-28
SK-MEL-5 = system: SK-MEL-5
SK-OV-3 = system: SK-OV-3
SN12C = system: SN12C
T47D = system: T47D
TK-10 = system: TK-10
Malme-3M = system: Malme-3M

Cc1nc(N)sc1C(=O)Nc1nc[nH]n1
GI50 (COLO 205): > 100 µM (inactive) | GI50 (DU-145): > 100 µM (inactive) | GI50 (HCC 2998): > 100 µM (inactive) | GI50 (HCT-116): > 100 µM (inactive) | GI50 (HL-60): 13.3 µM (inactive) | GI50 (HOP-92): > 100 µM (inactive) | GI50 (Hs-578T): > 100 µM (inactive) | GI50 (IGROV-1): > 100 µM (inactive) | GI50 (LOX IMVI): > 100 µM (inactive) | GI50 (NCI-H522): > 100 µM (inactive) | GI50 (OVCAR-8): > 100 µM (inactive) | GI50 (PC-3): > 100 µM (inactive) | GI50 (RPMI-8226): > 100 µM (inactive) | GI50 (SK-MEL-28): > 100 µM (inactive) | GI50 (SK-MEL-5): > 100 µM (inactive) | GI50 (SK-OV-3): > 100 µM (inactive) | GI50 (SN12C): > 100 µM (inactive) | GI50 (T47D): > 100 µM (inactive) | GI50 (TK-10): > 100 µM (inactive)

C=C(C)C(=O)OC1CC2=CC(CC3(C)OC3C3OC(=O)C(=C)C13)OC2=O (configuration not stated)
GI50 (COLO 205): 2.91 µM (inactive) | GI50 (DU-145): 23.7 µM (inactive) | GI50 (HCC 2998): 20 µM (inactive) | GI50 (HCT-116): 5.01 µM (inactive) | GI50 (HL-60): 1.12 µM (active) | GI50 (HOP-92): 2.9 µM (inactive) | GI50 (Hs-578T): 22.6 µM (inactive) | GI50 (IGROV-1): 19.3 µM (inactive) | GI50 (LOX IMVI): 4.14 µM (inactive) | GI50 (Malme-3M): 4.23 µM (inactive) | GI50 (NCI-H522): 1.92 µM (inactive) | GI50 (OVCAR-8): 9.66 µM (inactive) | GI50 (PC-3): 14.7 µM (inactive) | GI50 (SK-MEL-28): 12.3 µM (inactive) | GI50 (SK-MEL-5): 16.9 µM (inactive) | GI50 (SK-OV-3): 18.8 µM (inactive) | GI50 (SN12C): 13.7 µM (inactive) | GI50 (T47D): 4.67 µM (inactive) | GI50 (TK-10): 7.73 µM (inactive)

COc1cc(OC2OC(CO)C(O)C(O)C2O)c2c(c1)O[C@@H]1[C@H](O)Oc3cc(OC)c(OC)cc3[C@]1(O)C2=O (some centres not stated)
GI50 (COLO 205): > 25 µM (inactive) | GI50 (DU-145): > 25 µM (inactive) | GI50 (HCC 2998): > 25 µM (inactive) | GI50 (HCT-116): > 25 µM (inactive) | GI50 (HL-60): > 25 µM (inactive) | GI50 (HOP-92): > 25 µM (inactive) | GI50 (Hs-578T): > 25 µM (inactive) | GI50 (IGROV-1): > 25 µM (inactive) | GI50 (LOX IMVI): > 25 µM (inactive) | GI50 (NCI-H522): > 25 µM (inactive) | GI50 (OVCAR-8): > 25 µM (inactive) | GI50 (PC-3): > 25 µM (inactive) | GI50 (RPMI-8226): > 25 µM (inactive) | GI50 (SK-MEL-28): > 25 µM (inactive) | GI50 (SK-MEL-5): > 25 µM (inactive) | GI50 (SK-OV-3): > 25 µM (inactive) | GI50 (SN12C): > 25 µM (inactive) | GI50 (T47D): > 25 µM (inactive) | GI50 (TK-10): > 25 µM (inactive)
